Experimental data published in US20180273528A1 (LES LABORATOIRES SERVIER, priority 2015, published 2018).

Tests used:
DYRK1A [1] = biological target: T1, DYRK1A (Homo sapiens, UniProt Q13627); assay: Kinase TR-FRET assay, DYRK1A; assay type: biochemical; design: full-length, wild-type human DYRK1A (NM_001396) with an HA tag; expressed in transfected cells; host or cells: human U2-OS osteosarcoma cells, transient transfection of a pcDNA3.1 plasmid; settings: full-length human kinase, 10 μM ATP
Procedure, shortened: (§1)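 Compounds tested at 0.1 nM to 30 μM in reaction buffer; reaction stopped with 10 mM EDTA. Phosphorylated MBP detected with 1 nM Europium-labelled anti-phospho-Thr232 antibody by TR-FRET.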

[2] = biological target: T2, His-TEV-DYRK1A Kinase domain (aa127-485) (Homo sapiens, UniProt Q13627); assay: Kinase ADP assay (ADP Hunter), DYRK1A kinase domain; assay type: biochemical; settings: 20 μM ATP
T2 construct: His-TEV-DYRK1A Kinase domain (aa127-485); His tag (N); TEV protease cleavage site (N)
Procedure, shortened: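 Compounds incubated 10 min at 30 °C with 20 nM enzyme, 40 μM peptide substrate and 20 μM ATP in pH 7.4 Hepes buffer with 10 mM MgCl2. ADP formed detected by ADP Hunter Plus reagents after 20 min at 30 °C, fluorescence read at 590 nm.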

DYRK1B = biological target: T3, DYRK1B (Homo sapiens, UniProt Q9Y463); assay: Kinase TR-FRET assay, DYRK1B; assay type: biochemical; settings: full-length human kinase, 10 μM ATP
T3 construct: full-length human kinases from Carna Biosciences; purchased Carna Biosciences 04-131
T3 sequence (Q9Y463 whole entry): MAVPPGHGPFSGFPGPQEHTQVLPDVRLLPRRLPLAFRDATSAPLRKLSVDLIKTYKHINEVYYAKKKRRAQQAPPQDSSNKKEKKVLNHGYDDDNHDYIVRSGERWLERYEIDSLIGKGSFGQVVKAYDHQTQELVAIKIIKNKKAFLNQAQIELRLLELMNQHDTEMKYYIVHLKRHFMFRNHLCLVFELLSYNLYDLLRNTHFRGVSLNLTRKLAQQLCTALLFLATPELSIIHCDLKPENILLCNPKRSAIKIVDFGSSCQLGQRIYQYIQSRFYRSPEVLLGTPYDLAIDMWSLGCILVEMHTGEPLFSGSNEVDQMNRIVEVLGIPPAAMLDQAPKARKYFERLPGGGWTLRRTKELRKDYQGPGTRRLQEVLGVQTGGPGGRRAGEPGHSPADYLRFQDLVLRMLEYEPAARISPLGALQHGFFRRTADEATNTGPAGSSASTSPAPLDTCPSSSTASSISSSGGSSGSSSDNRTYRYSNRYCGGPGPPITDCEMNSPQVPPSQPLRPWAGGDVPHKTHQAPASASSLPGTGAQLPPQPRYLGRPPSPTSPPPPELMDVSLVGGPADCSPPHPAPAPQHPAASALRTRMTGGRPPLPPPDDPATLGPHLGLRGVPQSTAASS
Procedure, shortened: as §1

CDK9 = biological target: T4, CDK9 (Homo sapiens, UniProt P50750); assay: Kinase TR-FRET assay, CDK9; assay type: biochemical; settings: full-length human kinase, 10 μM ATP
T4 construct: full-length human kinases from Carna Biosciences; purchased Carna Biosciences 04-110
T4 sequence (P50750 whole entry): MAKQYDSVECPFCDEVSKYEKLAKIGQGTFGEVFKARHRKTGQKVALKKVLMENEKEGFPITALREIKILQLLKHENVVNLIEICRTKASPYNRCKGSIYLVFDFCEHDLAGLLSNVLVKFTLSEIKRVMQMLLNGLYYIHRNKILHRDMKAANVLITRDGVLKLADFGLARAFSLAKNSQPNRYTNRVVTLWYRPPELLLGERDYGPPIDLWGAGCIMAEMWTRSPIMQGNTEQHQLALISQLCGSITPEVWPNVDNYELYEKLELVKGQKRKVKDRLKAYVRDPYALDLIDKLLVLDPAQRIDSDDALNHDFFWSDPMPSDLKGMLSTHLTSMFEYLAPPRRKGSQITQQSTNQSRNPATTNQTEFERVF
T4 sequence (O60563 whole entry partner): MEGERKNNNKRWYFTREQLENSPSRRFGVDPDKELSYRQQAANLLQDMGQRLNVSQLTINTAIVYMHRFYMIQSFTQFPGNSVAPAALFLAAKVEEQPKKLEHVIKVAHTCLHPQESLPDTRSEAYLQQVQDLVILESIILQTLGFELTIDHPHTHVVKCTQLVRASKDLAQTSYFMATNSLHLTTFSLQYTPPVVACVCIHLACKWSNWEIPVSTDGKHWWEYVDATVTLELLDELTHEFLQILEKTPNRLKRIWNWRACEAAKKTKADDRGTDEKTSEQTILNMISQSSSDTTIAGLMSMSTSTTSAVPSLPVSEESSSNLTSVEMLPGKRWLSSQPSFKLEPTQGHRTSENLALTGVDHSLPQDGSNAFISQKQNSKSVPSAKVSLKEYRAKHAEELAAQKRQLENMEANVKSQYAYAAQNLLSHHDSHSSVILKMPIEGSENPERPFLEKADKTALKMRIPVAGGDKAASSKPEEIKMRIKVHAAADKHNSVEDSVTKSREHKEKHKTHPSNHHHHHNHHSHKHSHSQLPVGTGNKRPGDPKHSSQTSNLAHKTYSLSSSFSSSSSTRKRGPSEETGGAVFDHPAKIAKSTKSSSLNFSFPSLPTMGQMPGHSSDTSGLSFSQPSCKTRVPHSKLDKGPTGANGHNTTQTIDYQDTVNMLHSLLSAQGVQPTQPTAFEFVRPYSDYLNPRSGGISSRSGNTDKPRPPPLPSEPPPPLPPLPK
Procedure, shortened: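 Full-length human CDK9 (0.9 ng/μl) incubated 100 min at room temperature with 10 μM ATP, 100 nM ULight-MBP peptide and compound (0.1 nM–30 μM) in 50 mM HEPES pH 7.4, 1 mM EGTA, 10 mM MgCl2, 2 mM DTT, 0.01% Tween20. Stopped with 10 mM EDTA, then 1 nM Eu-anti-phospho-Thr232 MBP antibody added for 1 h. TR-FRET read at 665/620 nm with 340 nm excitation.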

CLK1 = biological target: T5, CLK1 (Homo sapiens, UniProt P49759); assay: Kinase TR-FRET assay, CLK1; assay type: biochemical; settings: full-length human kinase, 10 μM ATP
T5 construct: full-length human kinases from Carna Biosciences; purchased Carna Biosciences 04-126
T5 sequence (P49759 1-526 isoform P49759-3): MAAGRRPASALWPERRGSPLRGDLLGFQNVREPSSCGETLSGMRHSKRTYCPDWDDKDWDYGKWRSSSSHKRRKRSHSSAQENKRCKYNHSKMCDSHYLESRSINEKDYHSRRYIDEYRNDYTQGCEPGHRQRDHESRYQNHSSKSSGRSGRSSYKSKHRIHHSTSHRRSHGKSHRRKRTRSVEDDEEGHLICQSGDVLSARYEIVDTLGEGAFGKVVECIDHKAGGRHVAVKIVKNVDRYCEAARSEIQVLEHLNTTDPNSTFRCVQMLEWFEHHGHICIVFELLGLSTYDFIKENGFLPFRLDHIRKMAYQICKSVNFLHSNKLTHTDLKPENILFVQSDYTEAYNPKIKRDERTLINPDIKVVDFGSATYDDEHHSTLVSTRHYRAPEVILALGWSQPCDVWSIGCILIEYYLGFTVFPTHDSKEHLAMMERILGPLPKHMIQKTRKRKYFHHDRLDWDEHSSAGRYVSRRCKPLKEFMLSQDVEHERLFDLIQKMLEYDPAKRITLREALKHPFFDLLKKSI
Procedure, shortened: as §1

DYRK1A [3] = biological target: T1, DYRK1A; assay: Cellular DYRK1 autophosphorylation assay in U2-OS cells; assay type: cell-based; design: full-length, wild-type human DYRK1A (NM_001396) with an HA tag; expressed in transfected cells; host or cells: human U2-OS osteosarcoma cells, transient transfection of a pcDNA3.1 plasmid; settings: U2-OS cells transfected with HA-tagged human DYRK1A, 5 hours exposure; read-out: IC50 (μM) P-Ser520-Dyrk1A -Cell assay
Procedure, shortened: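 U2-OS cells treated with a compound concentration range for 5 h. Phospho-Ser520-DYRK1A measured by western blot densitometry or Mesoscale ELISA. IC50 from dose-response curves; for blots, ratio of phospho-Ser520 to total DYRK1A signal.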

| SMILES | IC50 (DYRK1A [1]) [µM] | IC50 [2] [µM] | IC50 (DYRK1B) [µM] | IC50 (CDK9) [µM] | IC50 (CLK1) [µM] | IC50 (DYRK1A [3]) [µM] |
| --- | --- | --- | --- | --- | --- | --- |
| Cc1nc2ccc(-c3cc(N)nc(N)c3)nc2n1CCOc1ccc2[nH]ccc2c1 [Example 210, 4-{3-[2-(1H-indol-5-yloxy)ethyl]-2-methyl-3H-imidazo[4,5-b]pyridin-5-yl}pyridine-2,6-diamine] | 0.003 | 0.008 | 0.006 | 1.01 | 0.018 | 0.047 |
| Cc1nc2ccc(-c3cc(N)nc(N)c3)nc2n1CCOc1c(F)cccc1F [Example 212, 4-{3-[2-(2,6-difluorophenoxy)ethyl]-2-methyl-3H-imidazo[4,5-b]pyridin-5-yl}pyridine-2,6-diamine] | 0.003 | 0.007 | 0.04 | > 10 | 0.017 | 0.083 |
| Nc1cc(-c2ccc3nc(Cl)n(C4CCCC4)c3n2)cc(N)n1 [Example 220, 4-(2-chloro-3-cyclopentyl-3H-imidazo[4,5-b]pyridin-5-yl)pyridine-2,6-diamine] | 0.003 | 0.011 | 0.013 | 0.724 | 0.019 | 0.075 |
| N#Cc1nc2ccc(-c3cc(N)nc(N)c3)nc2n1C1CCCC1 [Example 221, 3-cyclopentyl-5-(2,6-diaminopyridin-4-yl)-3H-imidazo[4,5-b]pyridine-2-carbonitrile] | 0.027 | 0.008 | 0.012 | 0.317 | 0.016 | 0.043 |
| N#Cc1nc2ccc(-c3cc(N)nc(N)c3)nc2n1CCOc1ccccc1 [Example 222, 5-(2,6-diaminopyridin-4-yl)-3-(2-phenoxyethyl)-3H-imidazo[4,5-b]pyridine-2-carbonitrile] | 0.018 | 0.023 | 0.031 | > 3 | 0.062 | 0.244 |
| N#Cc1nc2ccc(-c3cc(N)nc(N)c3)nc2n1CCCC(F)(F)F [Example 226, 5-(2,6-diaminopyridin-4-yl)-3-(4,4,4-trifluorobutyl)-3H-imidazo[4,5-b]pyridine-2-carbonitrile] | 0.005 | 0.013 | 0.01 | 0.713 | 0.023 | 0.148 |
